Measured values taken from article PMC10988834, “Neq2X7: a multi-purpose and open-source fusion DNA polymerase for advanced DNA engineering and diagnostics PCR” (BMC Biotechnology, 2024).

Target: T1, Neq2X (Nanoarchaeum equitans, UniProt Q74M37+Q74N74, Q74N74:A523R/Q74N74:N540R)
T1 construct: gene NEQ068; double mutant Neq DNA polymerase without Sso7d, N-terminal 6xHis; one polypeptide, E. coli Rosetta2 (DE3) pLysS
Experiment: PCR amplification, agarose gel
Assay type: biochemical
Details: with dATP, dCTP, dGTP, 1 min/kb, extension 72 °C

T1 sequence (Q74M37 entry or part of it): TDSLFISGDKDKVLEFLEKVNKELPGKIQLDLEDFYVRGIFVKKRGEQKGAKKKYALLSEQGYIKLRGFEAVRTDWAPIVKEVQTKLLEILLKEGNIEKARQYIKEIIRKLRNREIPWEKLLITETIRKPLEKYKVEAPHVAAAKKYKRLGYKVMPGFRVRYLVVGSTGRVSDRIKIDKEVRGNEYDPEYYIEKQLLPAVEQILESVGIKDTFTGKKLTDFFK
T1 sequence (Q74N74 entry or part of it A523R/N540R): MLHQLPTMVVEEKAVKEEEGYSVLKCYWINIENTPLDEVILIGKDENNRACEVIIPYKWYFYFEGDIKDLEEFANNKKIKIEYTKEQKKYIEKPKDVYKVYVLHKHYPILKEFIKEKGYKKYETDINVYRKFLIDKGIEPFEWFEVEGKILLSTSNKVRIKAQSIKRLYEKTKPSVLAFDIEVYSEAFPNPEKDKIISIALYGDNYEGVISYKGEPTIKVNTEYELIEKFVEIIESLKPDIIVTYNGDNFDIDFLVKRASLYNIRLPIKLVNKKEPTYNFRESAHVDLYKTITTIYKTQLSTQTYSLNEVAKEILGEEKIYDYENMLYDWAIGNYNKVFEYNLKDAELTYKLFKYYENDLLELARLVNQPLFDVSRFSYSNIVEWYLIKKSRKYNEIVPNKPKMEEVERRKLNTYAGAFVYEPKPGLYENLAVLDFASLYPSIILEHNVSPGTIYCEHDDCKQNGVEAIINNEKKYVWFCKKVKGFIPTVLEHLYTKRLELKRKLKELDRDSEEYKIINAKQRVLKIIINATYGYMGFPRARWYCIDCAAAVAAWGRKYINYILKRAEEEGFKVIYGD

| SMILES | PCR amplification, agarose gel (dUTP fully replacing dTTP, 3 kb amplicon) | PCR amplification, agarose gel (3-12 kb amplicons) |
| --- | --- | --- |
| O=c1ccn([C@H]2C[C@H](O)[C@@H](COP(=O)(O)OP(=O)(O)OP(=O)(O)O)O2)c(=O)[nH]1 [dUTP] | all tested polymerases were able to generate a detectable PCR product | – |
| Cc1cn([C@H]2C[C@H](O)[C@@H](COP(=O)(O)OP(=O)(O)OP(=O)(O)O)O2)c(=O)[nH]c1=O [dTTP] | – | all three polymerases amplified DNA to a detectable level |
